Numbers after ± are expanded uncertainties.
Assay: molar heat capacity at saturation pressure; xn = mol fraction of the nth substance listed

CCCCn1cc[n+](C)c1.Cc1ccc(S(=O)(=O)[O-])cc1 [1-butyl-3-methylimidazolium tosylate] + O
Conditions | molar heat capacity [J/K/mol]
187.71 K, Metastable crystal, x1 = 0.83 | 257.58 ± 2.6
188.37 K, Crystal, x1 = 0.37 | 129.48 ± 1.5
189.01 K, Crystal, x1 = 0.3 | 108.8 ± 1.3
189.44 K, Crystal, x1 = 0.83 | 237.24 ± 2.3
189.61 K, Metastable crystal, x1 = 0.83 | 259.14 ± 2.6
191.25 K, Crystal, x1 = 0.37 | 131.12 ± 1.5
191.41 K, Crystal, x1 = 0.83 | 240.11 ± 2.3
191.51 K, Metastable crystal, x1 = 0.83 | 260.97 ± 2.6
191.66 K, Crystal, x1 = 0.3 | 109.86 ± 1.4
193.36 K, Crystal, x1 = 0.83 | 244.28 ± 2.3
193.41 K, Metastable crystal, x1 = 0.83 | 262.79 ± 2.6
194.12 K, Crystal, x1 = 0.37 | 132.64 ± 1.5
194.31 K, Crystal, x1 = 0.3 | 111.02 ± 1.4
195.3 K, Crystal, x1 = 0.83 | 250.02 ± 2.3
195.31 K, Metastable crystal, x1 = 0.83 | 264.88 ± 2.6
196.95 K, Crystal, x1 = 0.3 | 112.29 ± 1.4
196.98 K, Crystal, x1 = 0.37 | 134.15 ± 1.5
197.21 K, Metastable crystal, x1 = 0.83 | 268.01 ± 2.6
197.23 K, Crystal, x1 = 0.83 | 254.97 ± 2.6
199.09 K, Metastable crystal, x1 = 0.83 | 272.44 ± 2.6
199.14 K, Crystal, x1 = 0.83 | 258.88 ± 2.6
199.58 K, Crystal, x1 = 0.3 | 113.66 ± 1.4
199.84 K, Crystal, x1 = 0.37 | 135.92 ± 1.5
201 K, Metastable crystal, x1 = 0.83 | 280.52 ± 2.6
201.17 K, Crystal, x1 = 0.83 | 262.53 ± 2.6
201.54 K, Crystal, x1 = 0.3 | 114.83 ± 1.4
201.97 K, Crystal, x1 = 0.37 | 137.43 ± 1.5
202.83 K, Crystal, x1 = 0.3 | 115.46 ± 1.4
202.96 K, Metastable crystal, x1 = 0.83 | 287.56 ± 2.9
203.32 K, Crystal, x1 = 0.83 | 264.88 ± 2.6
203.36 K, Crystal, x1 = 0.37 | 138.57 ± 1.5
204.12 K, Crystal, x1 = 0.3 | 115.99 ± 1.4
204.75 K, Crystal, x1 = 0.37 | 139.08 ± 1.5
204.92 K, Metastable crystal, x1 = 0.83 | 289.38 ± 2.9
205.4 K, Crystal, x1 = 0.3 | 116.63 ± 1.4
205.47 K, Crystal, x1 = 0.83 | 266.7 ± 2.6
206.15 K, Crystal, x1 = 0.37 | 140.46 ± 1.5
206.69 K, Crystal, x1 = 0.3 | 117.05 ± 1.4
206.89 K, Metastable crystal, x1 = 0.83 | 290.69 ± 2.9
207.55 K, Crystal, x1 = 0.37 | 141.22 ± 1.6
207.62 K, Crystal, x1 = 0.83 | 268.53 ± 2.6
207.98 K, Crystal, x1 = 0.3 | 117.58 ± 1.4
208.85 K, Metastable crystal, x1 = 0.83 | 291.99 ± 2.9
208.96 K, Crystal, x1 = 0.37 | 142.1 ± 1.6
209.26 K, Crystal, x1 = 0.3 | 118 ± 1.4
209.77 K, Crystal, x1 = 0.83 | 270.61 ± 2.6
210.37 K, Crystal, x1 = 0.37 | 142.86 ± 1.6
210.55 K, Crystal, x1 = 0.3 | 118.74 ± 1.4
210.81 K, Metastable crystal, x1 = 0.83 | 293.03 ± 2.9
211.79 K, Crystal, x1 = 0.37 | 143.62 ± 1.6
211.84 K, Crystal, x1 = 0.3 | 119.27 ± 1.4
211.92 K, Crystal, x1 = 0.83 | 272.7 ± 2.6
212.77 K, Metastable crystal, x1 = 0.83 | 294.34 ± 2.9
213.13 K, Crystal, x1 = 0.3 | 120.22 ± 1.4
213.22 K, Crystal, x1 = 0.37 | 144.25 ± 1.6
214.07 K, Crystal, x1 = 0.83 | 274.78 ± 2.6
214.41 K, Crystal, x1 = 0.3 | 121.91 ± 1.4
214.66 K, Crystal, x1 = 0.37 | 145.26 ± 1.6
214.74 K, Metastable crystal, x1 = 0.83 | 295.64 ± 2.9
215.69 K, Crystal, x1 = 0.3 | 123.6 ± 1.5
216.09 K, Crystal, x1 = 0.37 | 146.27 ± 1.6
216.21 K, Crystal, x1 = 0.83 | 276.87 ± 2.6
216.7 K, Metastable crystal, x1 = 0.83 | 296.68 ± 2.9
216.97 K, Crystal, x1 = 0.3 | 125.51 ± 1.5
217.52 K, Crystal, x1 = 0.37 | 148.16 ± 1.6
218.24 K, Crystal, x1 = 0.3 | 127.73 ± 1.5
218.36 K, Crystal, x1 = 0.83 | 278.69 ± 2.6
218.66 K, Metastable crystal, x1 = 0.83 | 297.99 ± 2.9
218.93 K, Crystal, x1 = 0.37 | 150.81 ± 1.6
219.5 K, Crystal, x1 = 0.3 | 130.37 ± 1.5
220.33 K, Crystal, x1 = 0.37 | 154.98 ± 1.6
220.5 K, Crystal, x1 = 0.83 | 280.78 ± 2.6
220.62 K, Metastable crystal, x1 = 0.83 | 299.29 ± 2.9
220.76 K, Crystal, x1 = 0.3 | 133.97 ± 1.5
221.7 K, Crystal, x1 = 0.37 | 161.54 ± 1.8
222 K, Crystal, x1 = 0.3 | 138.72 ± 1.6
222.58 K, Metastable crystal, x1 = 0.83 | 300.59 ± 2.9
222.65 K, Crystal, x1 = 0.83 | 282.87 ± 2.6
223.04 K, Crystal, x1 = 0.37 | 170.5 ± 1.8
223.23 K, Crystal, x1 = 0.3 | 144.64 ± 1.6
224.35 K, Crystal, x1 = 0.37 | 182.11 ± 1.9
224.44 K, Crystal, x1 = 0.3 | 151.62 ± 1.7
224.54 K, Metastable crystal, x1 = 0.83 | 301.9 ± 2.9
224.8 K, Crystal, x1 = 0.83 | 284.95 ± 2.9
225.63 K, Crystal, x1 = 0.3 | 159.55 ± 1.7
225.63 K, Crystal, x1 = 0.37 | 195.24 ± 2
226.5 K, Metastable crystal, x1 = 0.83 | 303.2 ± 2.9
226.79 K, Crystal, x1 = 0.3 | 169.18 ± 1.8
226.88 K, Crystal, x1 = 0.37 | 210.13 ± 2.1
226.96 K, Crystal, x1 = 0.83 | 286.78 ± 2.9
227.92 K, Crystal, x1 = 0.3 | 180.91 ± 1.9
228.08 K, Crystal, x1 = 0.37 | 225.52 ± 2.3
228.46 K, Metastable crystal, x1 = 0.83 | 304.76 ± 2.9
229.02 K, Crystal, x1 = 0.3 | 196.03 ± 2
229.14 K, Crystal, x1 = 0.83 | 288.6 ± 2.9
229.24 K, Crystal, x1 = 0.37 | 246.35 ± 2.4
230.06 K, Crystal, x1 = 0.3 | 216.44 ± 2.2
230.36 K, Crystal, x1 = 0.37 | 271.97 ± 2.7
230.42 K, Metastable crystal, x1 = 0.83 | 306.33 ± 2.9
231.05 K, Crystal, x1 = 0.3 | 243.4 ± 2.4
231.35 K, Crystal, x1 = 0.83 | 290.43 ± 2.9
231.41 K, Crystal, x1 = 0.37 | 306.67 ± 3
231.97 K, Crystal, x1 = 0.3 | 279.14 ± 2.9
232.38 K, Metastable crystal, x1 = 0.83 | 307.89 ± 2.9
232.4 K, Crystal, x1 = 0.37 | 350.72 ± 3.4
232.82 K, Crystal, x1 = 0.3 | 325.66 ± 3.3
233.32 K, Crystal, x1 = 0.37 | 386.68 ± 3.5
233.59 K, Crystal, x1 = 0.3 | 384.24 ± 3.9
233.59 K, Crystal, x1 = 0.83 | 291.21 ± 2.9
234.25 K, Crystal, x1 = 0.37 | 311.22 ± 3.5
234.29 K, Crystal, x1 = 0.3 | 455.08 ± 4.7
234.34 K, Metastable crystal, x1 = 0.83 | 309.46 ± 2.9
234.92 K, Crystal, x1 = 0.3 | 526.56 ± 4.9
235.39 K, Crystal, x1 = 0.37 | 181.61 ± 2.1
235.5 K, Crystal, x1 = 0.3 | 534.91 ± 5.8
235.86 K, Crystal, x1 = 0.83 | 290.16 ± 2.9
236.15 K, Crystal, x1 = 0.3 | 325.13 ± 5.4
236.31 K, Metastable crystal, x1 = 0.83 | 310.24 ± 2.9
236.7 K, Crystal, x1 = 0.37 | 181.73 ± 1.9
237.09 K, Crystal, x1 = 0.3 | 171.82 ± 2.3
238 K, Crystal, x1 = 0.37 | 183.25 ± 1.9
238.22 K, Crystal, x1 = 0.83 | 290.95 ± 2.9
238.25 K, Crystal, x1 = 0.3 | 170.34 ± 1.8
238.27 K, Metastable crystal, x1 = 0.83 | 311.54 ± 2.9
239.3 K, Crystal, x1 = 0.37 | 184.76 ± 1.9
239.4 K, Crystal, x1 = 0.3 | 171.4 ± 1.8
240.23 K, Metastable crystal, x1 = 0.83 | 313.11 ± 2.9
240.46 K, Crystal, x1 = 0.83 | 293.81 ± 2.9
240.56 K, Crystal, x1 = 0.3 | 172.98 ± 1.8
240.6 K, Crystal, x1 = 0.37 | 186.27 ± 1.9
241.71 K, Crystal, x1 = 0.3 | 174.78 ± 1.8
241.9 K, Crystal, x1 = 0.37 | 188.17 ± 2
242.19 K, Metastable crystal, x1 = 0.83 | 315.19 ± 2.9
242.68 K, Crystal, x1 = 0.83 | 297.2 ± 2.9
242.86 K, Crystal, x1 = 0.3 | 176.47 ± 1.9
243.19 K, Crystal, x1 = 0.37 | 189.93 ± 2
244.01 K, Crystal, x1 = 0.3 | 178.27 ± 1.9
244.14 K, Metastable crystal, x1 = 0.83 | 317.28 ± 2.9
244.48 K, Crystal, x1 = 0.37 | 191.7 ± 2
244.87 K, Crystal, x1 = 0.83 | 300.59 ± 2.9
245.15 K, Crystal, x1 = 0.3 | 179.96 ± 1.9
245.76 K, Crystal, x1 = 0.37 | 193.72 ± 2
246.08 K, Metastable crystal, x1 = 0.83 | 319.62 ± 3.1

Reference: the NIST ThermoML archive (doi:10.1021/je700152c)
